{"source": "patent US20100003217A1", "about": "“Compounds and Pharmaceutical Compositions for the Treatment of Viral Infections” (priority 2008, published 2010)", "experiment": "Cytotoxicity assay (MTS), Zluc cells", "assay_type": "cell-based, human", "details": "human; Zluc cells, 3 days (Luciferase Assay columns)", "method": "The cytotoxicity assay measures the viability of cells after treatment with a test compound for 3 days in either GS4.1 cells or Zluc cells. […] The cytotoxicity assay is summarized as follows. Ninety-six-well tissue culture plates were seeded with GS4.1 or Zluc cells. Antiviral compound solutions were made up freshly in medium as 2×-concentrated stocks. Eight additional 3-fold drug dilutions were prepared from these stocks in medium for a total of 9 dilutions. At least four hours after the cells were seeded, drug treatment was initiated by adding one volume of each 2×-concentrated drug dilution to one volume of cells/medium in the tissue culture plates. Cells were then incubated for 3 days at 37° C./5% CO2. After 3 days of treatment, the CellTiter 96® Aqueous One Solution cell proliferation assay (Promega) was performed by adding the MTS solution to each well. The plates were then incubated at 37° C./5% CO2 for 3.5 hours. Plates were then read in a Victor^3V 1420 multilabel counter (Perkin Elmer) and CC50 concentrations were determined using Microsoft Excel and XLfit 4.1 software.", "data": [{"smiles": "CC(C)(CO)C(=O)SCCOP(=O)(NCc1ccccc1)OC[C@H]1O[C@@H](n2cnc3c(=O)[nH]c(N)nc32)[C@](C)(O)[C@@H]1O", "note": "(mixture of isomers) [Compound 1, 3-hydroxy-2,2-dimethyl-thiopropionic acid S-(2-{[(2R,3R,4R,5R)-5-(2-amino-6-oxo-1,6-dihydro-purin-9-yl)-3,4-dihydroxy-4-methyl-tetrahydro-furan-2-ylmethoxy]-benzylamino-phosphoryloxy}-ethyl) ester]", "values": [{"measurement": "CC50 at 3 days", "value": "> 100", "unit": "µM"}]}]}
